Measurements reported in paper PMC9500072, “Topical application of an irreversible small molecule inhibitor of lysyl oxidases ameliorates skin scarring and fibrosis” (Nature Communications, 2022).
pIC50: −log10 of the molar value. Several values for one entry are separate records, joined by “and”; a condition that tells them apart may be missing. Equal values may be shown once. Read-outs that look alike come from different tables or passages of the source.

Tests used:
recombinant human LOXL3 = target: T1, recombinant human LOXL3 (Homo sapiens, UniProt P58215); test: Amplex Red oxidation assay, LOXL3 inhibition; format: biochemical; conditions: for pIC50: 30 min pre-incubation, read-out: rh LOXL3 IC50; for IC50: read-out: Human Recombinant LOXL3 pIC50±SD (converted)
T1 construct: purchased R&D Systems
T1 sequence (P58215 26-753): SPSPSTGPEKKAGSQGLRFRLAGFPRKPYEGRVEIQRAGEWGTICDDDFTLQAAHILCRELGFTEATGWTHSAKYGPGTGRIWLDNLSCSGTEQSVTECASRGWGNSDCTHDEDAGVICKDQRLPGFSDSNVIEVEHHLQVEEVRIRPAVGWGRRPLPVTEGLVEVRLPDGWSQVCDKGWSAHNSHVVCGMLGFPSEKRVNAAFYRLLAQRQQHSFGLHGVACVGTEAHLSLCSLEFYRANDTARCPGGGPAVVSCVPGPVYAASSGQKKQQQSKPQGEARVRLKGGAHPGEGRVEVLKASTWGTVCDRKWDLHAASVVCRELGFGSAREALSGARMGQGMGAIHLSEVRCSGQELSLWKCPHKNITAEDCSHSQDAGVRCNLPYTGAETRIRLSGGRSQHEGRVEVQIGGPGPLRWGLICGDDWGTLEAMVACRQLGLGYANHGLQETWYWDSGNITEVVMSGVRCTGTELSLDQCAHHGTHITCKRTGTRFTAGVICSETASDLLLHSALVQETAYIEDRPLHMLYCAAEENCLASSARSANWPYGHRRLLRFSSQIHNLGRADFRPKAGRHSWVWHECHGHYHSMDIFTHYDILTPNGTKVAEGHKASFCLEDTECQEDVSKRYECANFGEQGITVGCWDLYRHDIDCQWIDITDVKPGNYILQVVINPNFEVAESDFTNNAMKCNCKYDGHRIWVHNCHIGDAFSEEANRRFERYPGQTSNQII
Procedure: The measurement of the enzymatic activity of all lysyl oxidase family members was based on the detection of hydrogen peroxide with an Amplex-Red oxidation assay, as previously described; miniaturized in 384 well formats, with the appropriate combination of substrate and assay buffer for each individual enzyme. After a 30 min pre-incubation of the enzyme at 37 °C with the test compound (or with different incubation times for the time-dependency assay), one volume of reaction mixture containing 120 μM Amplex Red (AR) (Life Technologies), 1.5 U/mL horseradish peroxidase (HRP) (Sigma-Aldrich) and the specific substrate was added to each sample. The relative fluorescence units (RFU) were then measured every 2.5 min for 30 min at 37 °C, excitation 565 nm and emission 590, on a BMG Clariostar Microplate Reader. All the substrates were used at concentrations corresponding to their Km towards the corresponding enzyme, or with a range of different concentrations for the substrate competition experiments.
Lysyl oxidases assay buffer contained 1.2 M urea, 50 mM sodium borate buffer, pH 8.2 and 100 µM β-aminoproprionitrile (BAPN, Sigma-Aldrich) was used for low control.
Recombinant human LOXL1 was expressed and purified from cDNA (GeneArt) and 10 mM putrescine was used as substrate. Recombinant human and mouse LOXL2 (R&D Systems) were challenged with 5 mM putrescine (Sigma-Aldrich) as the substrate. Rat and dog recombinant LOXL2 were amplified and purified in house from HEK-293 clones kindly provided by Dr. Fernando Rodríguez Pascual, Madrid University, and used in the same conditions as for the human form. 2 mM putrescine was used as the substrate for recombinant human LOXL3 (R&D Systems) and LOXL4 (Dr. Fernando Rodríguez Pascual, university of Madrid, Spain) assays.

Human Recombinant SSAO = target: T2, Human Recombinant SSAO (Homo sapiens, UniProt Q16853); test: Compound oxidation assay (substrate propensity) by SSAO; format: biochemical; conditions: for Oxidation by SSAO (hydrogen peroxide generated relative to DMSO): single concentration 30 µM
T2 sequence (Q16853 1-763): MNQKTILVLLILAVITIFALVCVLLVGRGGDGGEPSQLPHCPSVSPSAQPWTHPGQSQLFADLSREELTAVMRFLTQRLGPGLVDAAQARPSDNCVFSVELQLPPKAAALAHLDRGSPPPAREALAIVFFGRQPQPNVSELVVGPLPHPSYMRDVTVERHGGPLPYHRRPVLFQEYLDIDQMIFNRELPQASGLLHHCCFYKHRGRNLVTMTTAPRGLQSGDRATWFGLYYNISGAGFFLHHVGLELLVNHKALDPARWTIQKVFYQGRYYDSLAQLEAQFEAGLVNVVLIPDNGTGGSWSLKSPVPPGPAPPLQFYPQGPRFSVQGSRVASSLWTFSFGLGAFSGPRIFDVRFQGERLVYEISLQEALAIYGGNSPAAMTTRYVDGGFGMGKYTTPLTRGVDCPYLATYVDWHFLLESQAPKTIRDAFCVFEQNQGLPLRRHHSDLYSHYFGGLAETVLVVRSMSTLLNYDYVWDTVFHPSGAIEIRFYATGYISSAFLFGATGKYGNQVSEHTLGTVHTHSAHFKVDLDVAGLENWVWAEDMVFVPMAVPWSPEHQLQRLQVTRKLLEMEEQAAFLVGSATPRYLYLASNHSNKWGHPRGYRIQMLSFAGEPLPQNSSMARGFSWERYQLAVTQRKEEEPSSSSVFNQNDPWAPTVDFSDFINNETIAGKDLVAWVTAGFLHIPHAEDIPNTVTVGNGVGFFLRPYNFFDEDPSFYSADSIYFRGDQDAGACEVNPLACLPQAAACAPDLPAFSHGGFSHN
Procedure: For compound oxidation assays, the amount of hydrogen peroxide generated at a single concentration (30 µM) of compound relative to DMSO was measured.
Data are expressed as mean ± SEM. Subsequent statistical analysis was performed with unpaired two-sided Student’s t tests. *p < 0.05, **p < 0.01, ***p < 0.001and ****p < 0.0001. Source data are provided as a Source Data file.
This assay determines the substrate propensity of a compound relative to background (dimethyl sulfoxide only). Compound oxidation by rhSSAO was measured by fluorometric assay. Briefly, rhSSAO was incubated for 2 h at 37 °C in HEPES buffer before the addition of an equal volume of Amplex Red ([…]), horseradish peroxidase (4 U/ml), and test compound in the same buffer. The kinetics of the formation of resorufin was measured immediately using Optima reader (BMG Labtech GmbH, Ortenburg, Germany), at 37 °C.

Row | Structure (SMILES) | Human Recombinant LOXL3 pIC50±SD (recombinant human LOXL3) | pIC50 (recombinant human LOXL3) | SSAO specificity (Fig 2F), oxidation, individual experiments (Human Recombinant SSAO; 30) | SSAO specificity (Fig 2F), oxidation, individual experiments (Human Recombinant SSAO; 60) | SSAO specificity (Fig 2F), oxidation, individual experiments (Human Recombinant SSAO; 90) | inhibition at 30 µM (recombinant human LOXL3; log conc -4.5229, read-out: Fig 2A inhibition (mean)) | inhibition at 10 µM (recombinant human LOXL3; log conc -5, read-out: Fig 2A inhibition (mean)) | inhibition at 3.333 µM (recombinant human LOXL3; log conc -5.4771, read-out: Fig 2A inhibition (mean)) | inhibition at 1.111 µM (recombinant human LOXL3; log conc -5.9542, read-out: Fig 2A inhibition (mean)) | inhibition at 0.3704 µM (recombinant human LOXL3; log conc -6.4313, read-out: Fig 2A inhibition (mean)) | inhibition at 0.1235 µM (recombinant human LOXL3; log conc -6.9083, read-out: Fig 2A inhibition (mean)) | inhibition at 0.0412 µM (recombinant human LOXL3; log conc -7.3851, read-out: Fig 2A inhibition (mean)) | inhibition at 0.0137 µM (recombinant human LOXL3; log conc -7.8633, read-out: Fig 2A inhibition (mean)) | inhibition at 0.0046 µM (recombinant human LOXL3; log conc -8.3372, read-out: Fig 2A inhibition (mean)) | inhibition at […] (recombinant human LOXL3; log conc -8.8239, read-out: Fig 2A inhibition (mean)) | inhibition at 0.0005 µM (recombinant human LOXL3; log conc -9.301, read-out: Fig 2A inhibition (mean)) | IC50 (recombinant human LOXL3) | Oxidation by SSAO (hydrogen peroxide generated relative to DMSO) (Human Recombinant SSAO)
1 | N#CCCN [BAPN, β-aminoproprionitrile, reference compound] | 6.3 ± 0.1 | 6.29 | 1.24 and 1.43 and 1.55 and 1.3 and 1.39 | 2.24 and 2.72 and 2.02 and 1.5 and 1.72 | 4.91 and 2.48 and 2.66 and 3.66 | – | – | – | – | – | – | – | – | – | – | – | – | –
2 | NC/C=C(\F)CS(=O)(=O)c1ccccc1 [PXS-4787] | – | 5.85 | – | – | – | 99.7% | 94.8% | 75.7% | 41.8% | 18.9% | 6.04% | -0.564% | 1.57% | -2.27% | -2.78% | -0.598% | 1260 nM | 1.3
3 | NC/C=C(\F)C(F)(F)S(=O)(=O)c1ccccc1 [PXS-6302] | – | 5.81 | 1.48 and 1.33 and 1.2 and 1.19 and 1.18 and 1.24 and 1.1 and 1.3 and 1.37 and 1.13 and 1.23 | 1.4 and 1.33 and 1.41 | 1.53 and 2.99 and 4.36 | – | – | – | – | – | – | – | – | – | – | – | 1580 nM | 1.3
